Results on one compound are retold here after patent US20200102264A1, “MARMELIN ANALOGS AND METHODS OF USE IN CANCER TREATMENT” (THE UNIVERSITY OF KANSAS, priority 2014, published 2020).

One assay relates to SW480 colon cancer cells. The assay is described as follows: hexoseaminidase cell proliferation assay, SW480. The class given is cell-based. From the text: Using hexoseaminidase assay, we determined the effect of the compounds on cell proliferation. […]
Using hexoseaminidase assay, we determined the effect of the compounds on cell proliferation. […] […] […] Overall, the analogs can be used as chemotherapeutic agents against colon and pancreatic cancer.

Assay [1] has as its system MiaPaCa-2 pancreatic cancer cells. The assay can be described thus: hexoseaminidase cell proliferation assay, MiaPaCa-2. In kind it is cell-based. As to the method:
(§1) Using hexoseaminidase assay, we determined the effect of the compounds on cell proliferation. […] The IC50 value at 48 hours is below 10 μM in all the cancer cell lines.
(§2) Using hexoseaminidase assay, we determined the effect of the compounds on cell proliferation. […] The MRL16 IC50 value at 48 hours is below 0.3 μM in Colon cancer cell lines. […] Overall, the analogs can be used as chemotherapeutic agents against colon and pancreatic cancer.

The test system of assay [2] is PanC-1 pancreatic cancer cells. The assay is described as follows: hexoseaminidase cell proliferation assay, PanC-1. In kind it is cell-based. As to the method: as §1, §2
Assay [3] has as its system colon, pancreatic and bladder cancer cells. The assay can be described thus: hexoseaminidase cell proliferation assay, summaries over cell lines. The note with it: dose and time dependent. The class given is cell-based. How it is done:
Water solubility studies were performed with the CD/analog complexes. […] The observed IC50 value of THBCD at 48 h is below 10 μM in all the colon, pancreatic and bladder cancer cells.
as §1, §2

The test system of another assay is HCT116 cells. The assay can be described thus: colony formation, HCT116. In kind it is cell-based.
In another assay the test system is CAMKII. The assay is described as follows: kinase activity against CAMKII. In kind it is biochemical.
For assay [4], the system named is HCT116 colon cancer tumor xenografts. The assay is described as follows: HCT116 colon cancer tumor xenografts in nude mice. The class given is in vivo. As to the method:
For in vivo, HCT116 cells were injected into the blanks of nude mice, after one week when there was a palpable tumor and these compounds were injected intraperitonially (5 mg/kg body weight) every day for 21 days. Tumor volumes were measured weekly. On 29th day mice were euthanized and the tumors were removed and weighed for use in histology, immunohistochemistry, and gene expression studies. Both THB and THBCD inhibited growth of the tumor. It is noted that the images of FIG. 4C are from left to right: control; THB; and THBCD.
For in vivo, HCT116 cells were injected into the blanks of nude mice, after one week when there was a palpable tumor and these compounds were injected intraperitonially (5 mg/kg body weight) every day for 21 days. Tumor volumes were measured weekly. On 29th day mice were euthanized and the tumors were removed and weighed for use in histology, immunohistochemistry, and gene expression studies. DBQ inhibited the growth of the tumor. It is noted that the images of FIG. 16C are from left to right: control; and DBQ.
FIGS. 19A and 19B show MRL 16 inhibits tumor growth, such as on colon cancer tumor xenografts. For in vivo, HCT116 cells were injected into the blanks of nude mice, after one week when there was a palpable tumor and these compounds were injected intraperitonially (2 mg/kg body weight) every day for 21 days. Tumor volumes were measured weekly. On 29th day mice were euthanized and the tumors were removed and weighed. MRL16 inhibited growth of the tumor.

Setting [5] is: intraperitoneal 5 mg/kg body weight every day for 21 days.

pIC50: −log10 of the molar value. Entries after “also recorded” stand apart in the source; their conditions may differ. Some results are limits rather than exact numbers.

The pIC50 is the IC50 on a negative log10 scale, so that one unit is a factor of ten. Consider `O=C(N/N=C/c1ccc(O)c(O)c1O)c1cc2ccccc2cc1O` [MRL THB], for which the pIC50 in the assay on SW480 colon cancer cells (SW480, 24 h) is less than 4.30; in the assay on SW480 colon cancer cells (SW480, 48 h) it was 5.00; in the assay with SW480 colon cancer cells (SW480, 72 h), 5.00; with SW480 colon cancer cells (SW480, 72 h, listed as THB), 5.05; in assay [1] (MiaPaCa-2, 24 h), less than 4.30; in assay [1] (MiaPaCa-2, 48 h), 5.00. The pIC50 in assay [1] (MiaPaCa-2, 72 h) is 5.00; in assay [1] (MiaPaCa-2, 72 h, listed as THB), 5.05; in assay [2] (PanC-1, 24 h) it was less than 4.30; in assay [2] (PanC-1, 48 h) it was 5.00; in assay [2] (PanC-1, 72 h), 5.10. The “inhibition of cell proliferation (in words)” value in assay [3] was “potent inhibitor; also recorded: inhibit proliferation”. Further, the colony formation result in the assay with HCT116 cells is recorded as “significantly inhibited colony formation”. Besides, the “fold less activity against CAMKII than DCLK1” value in the assay with CAMKII is on record as 100 fold. Moreover, the tumor volume result in assay [4] (setting [5]) is listed as “significantly reduced”. Further, the tumor weight result in assay [4] (setting [5]) is recorded as “significantly reduced”. The “phosphorylation of Akt” value in assay [4] (tumor tissues) is listed as “significantly reduced”. The “COX-2, VEGF and cyclin D1 expression” value in assay [4] (tumor xenograft tissues, immunohistochemistry and western blot) is given as “significantly reduced”. Moreover, the “angiogenesis by CD31 staining” value in assay [4] (xenograft tumor tissues, immunohistochemistry) is “inhibit”. The DCLK1 expression result in assay [4] (xenograft tumors, immunohistochemistry and western blot) is given as “inhibit”.
